From patent US20190231751A1, “TREATMENT OF FIBROTIC DISORDERS WITH JUN N-TERMINAL KINASE INHIBITORS” (Imago Pharmaceuticals, Inc., priority 2016, published 2019)

Columns and labels:
JNK = test: TGF-β1-induced JNK activation in human lung fibroblasts (Western blot); type: cell-based; conditions: HFL-1 cells; compound 30 minutes, then TGF-β1 1 ng/ml 30 minutes
Protocol: IGP001 and IGP002 are shown to affect TGF-β1-induced MAP kinase activities in human lung fibroblasts. Human fetal lung fibroblasts (HFL-1) (ATCC, Rockville, Md.) are cultured in Ham's F12K medium (American Type Culture Collection) supplemented with 50 U/ml penicillin G sodium, 50 μg/ml streptonycin sulfate (GIBCO BRL, Life Technologies, Inc., Rockville, Md.) and 10% fetal bovine serum (FBS; Equitech-Bio. Inc., Ingram, Tex.) and maintained in humidified 5% CO2 at 37° C. After reaching confluence, the serum content of the medium is reduced to 0.4% FBS for 24 h. The cells are then stimulated with 1 ng/ml TGF-β1 to produce CTGF.
To test the ability of IGP001 and IGP002 to suppress activation of JNK, HFL-1 cells are cultured with 0.1% DMSO (control vehicle), IGP001 or IGP002 at a concentration of […] for 30 minutes, followed by stimulation with TGF-β1 (1 ng/ml) for 30 minutes. Activities of JNK, p38 MAP kinase and ERK are determined by Western blotting whole cell lysates using antibodies specific for phosphorylated, activated forms of JNK, p38 MAP kinase, and ERK. […]
Phosphorylated JNK protein levels are quantified by densitometry. The optical density of the p46 and p54 phosphorylated protein band are corrected for total p46 and p54 protein, respectively, and results are expressed as ratio (%) of control value (TGF-β1-stimulated HFL-1 cells).

SMAD2 = test: TGF-β1-induced SMAD2 phosphorylation in HFL-1 cells (Western blot); type: cell-based, human; conditions: TGF-β1 1 ng/ml
Protocol: TGF-β1 factors initiate signaling by assembling receptor complexes that activate SMAD proteins. IGP001 and IGP002 are tested for their ability to suppress TGF-031 induction of SMAD signaling pathway by detecting the dually phosphorylated (Ser 465/Ser 467) form of SMAD2 by Western blotting against specific anti-phosphokinase antibody.
(§1) HFL-1 cells are created as described above in Example 3. HFL-1 cells are cultured with 0.1% DMSO (control vehicle), IGP001 or IGP002 for 30 min before stimulation with TGF-β1 (1 ng/ml) for 4 hours. Total RNA is extracted and hybridized with human CTGF probes, and messenger RNA levels are quantified by densitometry and optical density of CTGF mRNA band was corrected for G3PDH, and results are expressed as ratio (%) of control value (TGF-β1-stimulated HFL-1 cells).
Phosphorylation of SMAD2 following treatment with IGP001 or IGP002 are also determined by Western blotting whole cell lysates using an antibody specific for phosphorylated forms of SMAD2.

CTGF mRNA = test: TGF-β1-induced CTGF mRNA expression in HFL-1 cells; type: cell-based, human; conditions: compound 30 min before TGF-β1 1 ng/ml for 4 hours
Protocol: as §1

[1] = system: transgenic SREBP-1c model of NASH; test: Transgenic SREBP-1c model of NASH; type: in vivo, mice; conditions: 10 mg/kg/day p.o.
Protocol: The ability of IGP001 and IGP002 are tested in the transgenic SREBP-1c model of NASH. SREBP-1c is a lipogenic transcription factor, and overexpression creates a model of congenital lipodystrophy in which severe insulin resistance and diabetes develop secondary to impaired adipose differentiation (Shimomura I et al., Genes Dev 1998; 12: 3182-3194). In these mice, decreased fat tissue with lipid accumulation in the liver is observed, and marked hepatic steatosis occurs by […] of age. When fed a standard diet, steatosis, lobular inflammation, and perivenular and pericellular fibrosis develop at 20 weeks (Nakayama H, et al., Metabolism 2007; 56: 470-475; Takahashi Y, World J Gastroenterol. 2012 May 21; 18(19): 2300-2308).

[2] = system: myocardial ischemia-reperfusion; test: Rat model of cardiac ischemia and remodeling; type: in vivo
Protocol: To study the effects of JNK inhibitors on prevention and/or progression of cardiac infarct size following myocardial infarction, a rat model of cardiac ischemia and remodeling was used. Briefly, adult male Sprague-Dawley rats (Charles River labs) are subjected to 45 minutes normothermic ischemia (left coronary artery occlusion) followed by 48 hours reperfusion. In rodents, myocardial infarct size stabilizes by 48 hour post-ischemia following which events relating to left ventricular (LV) dilatation and remodeling begin. At the onset of reperfusion, animals receive vehicle, IGP001 or IGP002 (10 mg/kg/day) p.o. Infarct size as a percentage of region-at-risk (RAR) is determined using standard Evans Blue and tetrazolium chloride staining of the hearts. Rats are next tested for ischemic ventricular remodeling and cardiac function following treatment with IGP001 and IGP002. Rats subjected to 45 minutes normothermic myocardial ischemia receive vehicle, IGP001 or IGP002 p.o. (10 mg/kg/day, p.o.; twice/day for remainder of study) at onset of reperfusion. Following a 48 hour treatment period, animals are subjected to echocardiography (Philips Envisor C Ultrasound) at week 1 reperfusion and sacrificed at week 8 reperfusion. Myocardial ischemia-reperfusion is associated with the hall mark indices of LV remodeling: increased end-diastolic volume or LV dilatation; increased end-systolic volume (i.e. reduced cardiac output); reduced fractional shortening and ejection fraction. […] To better mimic the clinical scenario of delayed start of treatment, rats are administered with vehicle, IGP001 or IGP002 (10 mg/kg/day) p.o. 3 hours after the onset of reperfusion following a 45 minute myocardial ischemia. Animals are sacrificed at 48 hours reperfusion.

[3] = system: c-Jun phosphorylation at serine 63; test: ELISA of c-Jun phosphorylation in PBMC of treated rats; type: in vivo, rat; conditions: 10 and 30 mg/kg; kainic acid treated rats
Protocol: Blood from the animals treated with kainic acid as per Example 1 above was processed for the characterization of peripheral blood mononuclear cells (PBMC) from the treated animals. Briefly, the final blood samples from the exsanguinated rats were immediately centrifuged at 3,000 g for 10 minutes at 4° C. The plasma in upper layer was removed, and the remaining portion used for the isolation of the PBMC.
The buffy coat of PBMCs at the erythrocyte-plasma interface and the top red cell layer were collected into a 15 mL falcon tube containing 3 ml chilled PBS. The sample was resuspended and transferred to other 15 mL falcon tubes containing 6 ml Ficoll-Paque plus density gradient, and centrifuged at 18° C. for 10 minutes at 800 g. […] The middle ‘cloudy’ interface layer between plasma and Ficoll containing the PBMCs was transferred to a 15 mL tube, washed with 10 mL of cold PBS (4° C., 1×PBS), and centrifuged for 5 min at 4° C. at 1000 g. The supernatant was discarded.
The isolated PBMC were subjected to an ELISA assay using a kit for the detection of c-Jun phosphorylation at serine 63. Detection of phospho-Jun was carried out for the PMBCs of each kainic acid administered rat group: those receiving IGP001 in vehicle, those receiving IGP002 in vehicle, or those receiving vehicle alone.

[4] = 10 mg/kg/day p.o. for 48 hours following myocardial ischemia, week 1

## O=C(Cn1c(=O)ccc2cc(C(F)(F)F)ccc21)Nc1scc(Br)c1-c1nnc[nH]1 [IGP001, N-(4-bromo-3-(1H-1,2,4-triazol-5-yl)thiophen-2-yl)-2-(2-oxo-6-(trifluoromethyl)quinolin-1(2H)-yl)acetamide]
JNK
  TGF-β1-induced JNK phosphorylation: suppress TGF-β1-induced JNK phosphorylation in a dose-dependent fashion
SMAD2
  amounts of phosphorylated SMAD2: significantly increase
CTGF mRNA
  CTGF mRNA expression: suppressed CTGF mRNA expression by HFL-1 cells stimulated with TGF-β1 in a dose-dependent fashion
[1]
  collagen deposition: significant reductions in collagen deposition
  collagen type 1 protein and mRNA expression: significant reductions in collagen deposition, and collagen type 1 protein and mRNA expression
[2]; 10 mg/kg/day p.o. 3 hours after the onset of reperfusion, 48 hours reperfusion
  size of infarction, delayed start of treatment: statistically significant decrease in the size of infarction
[2]; 10 mg/kg/day p.o. at the onset of reperfusion, 48 hours reperfusion
  postischemic myocardial infarct size: significant reduction in postischemic myocardial infarct size
[2]; [4]
  LV remodeling (echocardiography): reduces adverse LV remodeling
  cardiac function (echocardiography): improved cardiac function
[3]
  c-Jun phosphorylation in PBMC: decrease in c-Jun phosphorylation
